Assay results from patent US12331048B2, “Pyrido-[3,4-d]pyridazine amine derivatives useful as NLRP3 inhibitors” (Ventus Therapeutics U.S., Inc., priority 2022, dated 2025).
Where two headings read alike, the source gives them in different places.

What was measured:
[1] = target: T1, NLRP3 (Homo sapiens, UniProt Q96P20); assay: Human whole blood (hWB) NLRP3 assay; type: cell-based; conditions: LPS priming 1 μg/ml, ATP activation, read-out: hWB IC50 (raw activity data)
T1 construct: endogenous in cells
Procedure: Heparin lithium coated tubes were used to collect blood from volunteers. Blood samples were distributed on 96 well plates using 90 μl per well. Priming was performed by adding 5 μl of LPS (O26:B6; Sigma L-2654) at a final concentration of 1 μg/ml for 4.5 hours in a humidified incubator with 37° C., 5% CO2. Thirty minutes prior to NLRP3 activation, 5 μl of a 20× compound solution or vehicle (2% DMSO) was added to each well and plates were incubated on a shaker (450 rpm) in a humidified incubator with 37° C., 5% CO2. Activation was then performed by adding 3.3 μl of a 31×ATP solution per well. At the end of the 30 minutes stimulation, the plates were centrifuged (800 g, 10 min. room temperature) and the plasma from each well was frozen at −80° C. […] levels in the supernatant were analyzed using a mesoscale discovery assay (MSD K151TUK) according to the manufacturers' instructions. Human whole blood was drawn from healthy volunteers after obtaining written informed consent.
Table D assigns each compound a code for potency in the human whole blood (hWB) NLRP3 Assay: A or B. According to the code. […] The corresponding raw activity data is also included.

[2] = Brain levels (kp and kpu,u) after oral administration; type: in vivo, CDI mice; conditions: mice, 20 mpk PO; for Kp at 24 h / Kpu,u (unbound brain-to-plasma ratio): CDI, mouse, brain / plasma, po, 20 mg/kg; for Kp at 24 h: whole brain AUC over 24 h divided by plasma AUC; for Kpu,u (unbound brain-to-plasma ratio) / kpu,u (code): kp corrected with mouse plasma protein binding and mouse brain homogenate binding
Procedure: The in vivo total brain to plasma ratio was assessed in CDI mice after oral administration of the compound. Blood was collected at several timepoints up to 24 h, and transferred into plastic micro centrifuge tubes with EDTA-K2 as anticoagulant. Blood samples were centrifuged at 4000 g for 5 minutes at 4° C. to obtain plasma, then immediately frozen and stored at −75±15° C. prior to analysis. Animals were terminally anaesthetized with a rising concentration of CO2 gas at about 1 minute. At selected timepoints, whole brains were removed from the skull, rinsed in cold PBS to remove blood, dried with clean gauze, then frozen in liquid nitrogen and kept at −75±15° C. before analysis. At the time of analysis, brain samples were homogenized with PBS by tissue weight (g) to PBS volume (mL) ratio 1:3. Plasma and brain drug levels were quantified by LC/MS/MS on a AB Sciex Triple Quad 5500+ instrument, after separation on a HALO 160A ES-C18, 2.7 μm 2.1-50 mm column. Quantitation was performed using a calibration curve prepared in blank plasma or blank brain homogenate. The software WinNonlin (Phoenix™) was used for pharmacokinetic analysis from the concentrations versus time data, including the AUCinf and AUClast. The Kp ratio (total brain concentration over total plasma concentration) was calculated as (AUCtot,br)/(AUCtot,pl).
The unbound brain exposure was assessed as Kpuu, which is the free brain/free plasma concentration ratio (Cu,br/Cu,pl). The Cu,br/Cu,pl ratios were obtained from in vivo total brain to plasma ratios (Ctot,br/Ctot,pl) by using in vitro determined Fu,br and Fu,pl.
Plasma protein binding and brain homogenate protein binding were measured by equilibrium dialysis in a HTDialysis plate. The dialysis membranes were soaked in ultrapure water for 60 minutes to separate strips, then in 20% ethanol for 20 minutes, finally in dialysis buffer for 20 minutes. The dialysis set up was assembled according to the manufacturer's instruction. Each cell received 150 μL of plasma or brain homogenate spiked with 1 mM of compound, and dialyzed against an equal volume of dialysis buffer (PBS). The dialysis plate was sealed and incubated in an incubator at 37° C. with 5% CO2 at 100 rpm for 6 hours. At the end of incubation, compound concentration was measured in both chambers by LC-MS/MS on a Triple Quad™ 5500 from AB Inc after separation on a XSelect Hss T3 2.5μ (2.1×30 mm) column. Free fraction (Fu) was calculated as (Peak Area Ratio buffer chamber/Peak Area Ratio plasma chamber).
Kpuu was calculated as (AUCtot,br×Fu,br)/(AUCtot,pl×Fu,pl).
The below table also assigns each compound a code for kp and kpu,u values: A or B. According to the code. A represents a value of >0.3 and B represents a value of ≤0.3. […] The kpu,u was then calculated upon correcting this kp value with mouse plasma protein binding and mouse brain homogenates binding. A Kpu,u value >0.3 is brain penetrant, and Kpu,u value less than or equal to 0.3 is not brain penetrant. N.D.=not determined. The corresponding raw kp and kpu,u data is also included.

T1 sequence (Q96P20 whole entry): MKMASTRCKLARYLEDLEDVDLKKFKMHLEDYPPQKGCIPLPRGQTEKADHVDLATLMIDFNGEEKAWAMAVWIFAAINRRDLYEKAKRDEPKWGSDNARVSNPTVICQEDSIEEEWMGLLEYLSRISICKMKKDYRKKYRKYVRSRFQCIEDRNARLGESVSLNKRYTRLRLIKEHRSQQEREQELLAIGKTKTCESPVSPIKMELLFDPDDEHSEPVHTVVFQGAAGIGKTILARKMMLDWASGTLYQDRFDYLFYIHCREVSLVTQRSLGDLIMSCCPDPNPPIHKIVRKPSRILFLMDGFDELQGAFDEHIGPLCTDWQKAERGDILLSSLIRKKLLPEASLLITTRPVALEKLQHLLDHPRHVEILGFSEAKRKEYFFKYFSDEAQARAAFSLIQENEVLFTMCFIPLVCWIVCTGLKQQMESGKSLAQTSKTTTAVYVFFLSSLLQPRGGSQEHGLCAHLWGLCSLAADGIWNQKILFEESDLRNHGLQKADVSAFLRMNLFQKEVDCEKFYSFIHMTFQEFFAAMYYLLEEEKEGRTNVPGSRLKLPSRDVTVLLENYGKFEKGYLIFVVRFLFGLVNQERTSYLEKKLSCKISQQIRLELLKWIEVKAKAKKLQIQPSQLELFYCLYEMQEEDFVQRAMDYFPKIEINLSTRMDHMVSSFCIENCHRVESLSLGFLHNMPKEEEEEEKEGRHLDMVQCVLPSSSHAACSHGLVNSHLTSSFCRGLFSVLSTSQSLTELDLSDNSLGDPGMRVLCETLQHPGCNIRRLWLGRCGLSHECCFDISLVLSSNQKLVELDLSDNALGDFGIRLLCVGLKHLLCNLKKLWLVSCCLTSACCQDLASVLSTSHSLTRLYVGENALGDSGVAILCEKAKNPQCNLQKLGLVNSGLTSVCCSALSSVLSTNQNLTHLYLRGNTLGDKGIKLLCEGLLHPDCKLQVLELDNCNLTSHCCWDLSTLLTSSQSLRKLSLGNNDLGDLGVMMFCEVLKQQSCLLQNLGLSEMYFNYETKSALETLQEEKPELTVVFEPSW

| IC50 [1] [nM] | Kp at 24 h ([2]; read-out: kp (code)) | Kp at 24 h ([2]; read-out: kp (raw)) | Kpu,u (unbound brain-to-plasma ratio) [2] | kpu,u (code) [2] | Compound |
| --- | --- | --- | --- | --- | --- |
| 1400 | > 0.3 | 0.65 | 0.099 | B (B represents a value of ≤0.3) | C[C@H]1C[C@H](Nc2nnc(-c3ccc(Cl)cc3O)c3ccncc23)CCO1 (single isomer, unassigned) [Compound 25C*] |
| 430 | > 0.3 | 0.66 | 2.3 | A (A represents a value of >0.3) | CN1CCO[C@@H](CNc2nnc(-c3ccc(C(F)(F)F)cc3O)c3ccncc23)C1 (single isomer, unassigned) [Compound 6*] |
| 1300 | – | – | – | – | Cc1cc(O)c(-c2nnc(N[C@@H]3COC(C)(C)C3)c3cnccc23)c(Cl)c1 (single isomer, unassigned) [Compound 26B*] |
| 510 | > 0.3 | 0.64 | 0.33 | A (A represents a value of >0.3) | Cc1ccc(-c2nnc(N[C@H]3CCOC(C)(C)C3)c3cnccc23)c(O)c1 (single isomer, unassigned) [Compound 14] |
| 330 | > 0.3 | 0.69 | 1.9 | A (A represents a value of >0.3) | CC1(C)COCC[C@@H]1Nc1nnc(-c2ccc(C(F)F)cc2O)c2ccncc12 (single isomer, unassigned) [Compound 17] |
| 820 | > 0.3 | 0.33 | 1.3 | A (A represents a value of >0.3) | Cc1ccc(-c2nnc(N[C@H]3COC(C)(C)C3)c3cnccc23)c(O)c1F (single isomer, unassigned) [Compound 12] |
| 220 | > 0.3 | 0.6 | 0.77 | A (A represents a value of >0.3) | Cc1ccc(-c2nnc(N[C@H]3CCOCC3(C)C)c3cnccc23)c(O)c1 (single isomer, unassigned) [Compound 13] |
| 210 | – | – | – | – | Cc1ccc(-c2nnc(N[C@@H]3COC(C)(C)C3)c3cnccc23)c(O)c1 [Compound 5B, (S)-2-(4-((5,5-dimethyltetrahydrofuran-3-yl)amino)pyrido[3,4-d]pyridazin-1-yl)-5-methylphenol] |
| 120 | ≤ 0.3 | 0.24 | 0.33 | A (A represents a value of >0.3) | CC1(C)C[C@@H](Nc2nnc(-c3ccc(C(F)F)cc3O)c3ccncc23)CO1 (single isomer, unassigned) [Compound 23] |
| 1400 | > 0.3 | 0.35 | 0.51 | A (A represents a value of >0.3) | Cc1ccc(-c2nnc(N[C@H]3CCC(C)(C)OC3)c3cnccc23)c(O)c1 (single isomer, unassigned) [Compound 10*] |
| 5900 | – | – | – | – | CC1(C)OCC[C@@H]1Nc1nnc(-c2ccc(C(F)(F)F)cc2O)c2ccncc12 (single isomer, unassigned) [Compound 22B] |
| 660 | > 0.3 | 0.81 | 0.89 | A (A represents a value of >0.3) | CC1(C)C[C@@H](Nc2nnc(-c3ccc(Cl)cc3O)c3ccncc23)CCO1 (single isomer, unassigned) [Compound 4*] |
| 2400 | – | – | – | – | CC1(C)COCC[C@H]1Nc1nnc(-c2ccc(C(F)F)cc2O)c2ccncc12 (single isomer, unassigned) [Compound 17B] |
| 3400 | – | – | – | – | CC1(C)CC[C@@H](Nc2nnc(-c3ccc(C(F)F)cc3O)c3ccncc23)CO1 (single isomer, unassigned) [Compound 20B] |
| 18000 | – | – | – | – | CC1(C)COCC[C@H]1Nc1nnc(-c2ccc(C(F)(F)F)cc2O)c2ccncc12 (single isomer, unassigned) [Compound 15B] |
| 6200 | – | – | – | – | C[C@@H]1COCC[C@@H]1Nc1nnc(-c2ccc(Cl)cc2O)c2ccncc12 (single isomer, unassigned) [Compound 18D*] |

| IC50 [1] [nM] | Kp at 24 h ([2]; read-out: kp (code)) | Kp at 24 h ([2]; read-out: kp (raw)) | Kpu,u (unbound brain-to-plasma ratio) [2] | kpu,u (code) [2] | Compound |
| --- | --- | --- | --- | --- | --- |
| 9800 | – | – | – | – | Cc1ccc(-c2nnc(N[C@@H]3CCOCC3(C)C)c3cnccc23)c(O)c1 (single isomer, unassigned) [Compound 13B] |
| 1200 | – | – | – | – | Oc1cc(C(F)(F)F)ccc1-c1nnc(N[C@@H]2COC3(CC3)C2)c2cnccc12 (single isomer, unassigned) [Compound 19B] |
| 3200 | – | – | – | – | Cc1ccc(-c2nnc(N[C@@H]3COC(C)(C)C3)c3cnccc23)c(O)c1F (single isomer, unassigned) [Compound 12B] |
| 2300 | – | – | – | – | Cc1cc(O)c(-c2nnc(N[C@@H]3COC(C)(C)C3)c3cnccc23)c(F)c1 (single isomer, unassigned) [Compound 21B] |
| 3600 | – | – | – | – | Cc1ccc(-c2nnc(N[C@@H]3CCOC(C)(C)C3)c3cnccc23)c(O)c1 (single isomer, unassigned) [Compound 14B] |
| 1260 | – | – | – | – | CN1CCO[C@H](CNc2nnc(-c3ccc(C(F)(F)F)cc3O)c3ccncc23)C1 (single isomer, unassigned) [Compound 6B*] |
| 850 | – | – | – | – | C[C@H]1C[C@@H](Nc2nnc(-c3ccc(Cl)cc3O)c3ccncc23)CCO1 (single isomer, unassigned) [Compound 25B*] |
| – | ≤ 0.3 | 0.28 | 0.09 | B (B represents a value of ≤0.3) | CC1(C)C[C@H](Nc2nnc(-c3ccc(C(F)F)cc3O)c3ccncc23)CO1 (single isomer, unassigned) [Compound 23B] |
| 12000 | – | – | – | – | CC1(C)C[C@H](Nc2nnc(-c3ccc(C(F)F)cc3O)c3ccncc23)CCO1 (single isomer, unassigned) [Compound 16B*] |
| 7900 | – | – | – | – | Cc1ccc(-c2nnc(N[C@@H]3CCC(C)(C)OC3)c3cnccc23)c(O)c1 (single isomer, unassigned) [Compound 10B*] |
| 1800 | – | – | – | – | CC1(C)COC[C@H]1Nc1nnc(-c2ccc(Cl)cc2O)c2ccncc12 (single isomer, unassigned) [Compound 1B*] |
| 1700 | – | – | – | – | CC1(C)C[C@H](Nc2nnc(-c3ccc(Cl)cc3O)c3ccncc23)CCO1 (single isomer, unassigned) [Compound 4B*] |
| 10000 | – | – | – | – | CC1(C)C[C@H](Nc2nnc(-c3ccc(C(F)(F)F)cc3O)c3ccncc23)CCO1 (single isomer, unassigned) [Compound 11B*] |
| 11000 | – | – | – | – | CC1(C)COCC[C@H]1Nc1nnc(-c2ccc(Cl)cc2O)c2ccncc12 (single isomer, unassigned) [Compound 3B*] |
| 1200 | – | – | – | – | C[C@H]1COCC[C@@H]1Nc1nnc(-c2ccc(Cl)cc2O)c2ccncc12 (single isomer, unassigned) [Compound 18C*] |
